Assay results as given in patent US8039496B2, “Therapeutic compounds” (Allergan, Inc., priority 2007, dated 2011).
Where two headings read alike, the source gives them in different places.

Key:
[1] = target: T1, hEP2 (Homo sapiens, UniProt P43116); experiment: hEP2 binding (Ki)
Description: (§1) U.S. patent application Ser. No. 11/553,143, filed on Oct. 26, 2006, describes the methods used to obtain the in vitro data in the table below.

[2] = target: T1, hEP2; experiment: hEP2 flipr functional assay; format: cell-based
Description: as §1

[3] = target: T2, hEP4 (Homo sapiens, UniProt P35408); experiment: hEP4 binding (Ki)
T2 sequence (P35408 whole entry): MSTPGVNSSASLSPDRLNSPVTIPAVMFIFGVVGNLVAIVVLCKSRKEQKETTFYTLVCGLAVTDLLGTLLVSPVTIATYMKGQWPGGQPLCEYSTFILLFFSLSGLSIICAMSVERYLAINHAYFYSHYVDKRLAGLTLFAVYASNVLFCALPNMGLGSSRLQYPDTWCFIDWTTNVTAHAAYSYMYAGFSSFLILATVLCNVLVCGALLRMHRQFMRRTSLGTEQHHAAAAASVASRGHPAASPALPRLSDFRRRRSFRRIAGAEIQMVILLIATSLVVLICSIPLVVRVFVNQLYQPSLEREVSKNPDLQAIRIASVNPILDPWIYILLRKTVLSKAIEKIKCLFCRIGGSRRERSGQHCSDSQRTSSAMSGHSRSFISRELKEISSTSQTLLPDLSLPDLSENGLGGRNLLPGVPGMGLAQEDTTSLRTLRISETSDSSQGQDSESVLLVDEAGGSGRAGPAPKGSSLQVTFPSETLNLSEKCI
Description: as §1

[4] = target: T2, hEP4; experiment: hEP4 flipr functional assay; format: cell-based
Description: as §1

[5] = target: T1, hEP2; experiment: hEP2 cAMP functional assay; format: cell-based
Description: as §1

[6] = test system: normotensive dogs; experiment: Intraocular pressure in normotensive dogs; format: in vivo; conditions: Canis lupus familiaris, topical, 120 h, once daily for 5 days, read-out: maximum IOP decrease from baseline (percent)
Description: (§2) U.S. Pat. No. 7,091,231 describes the methods used for these in vivo tests. 5-{3-[1R,2S,3R,5R)-5-Chloro-2-(3,5-dichloro-phenoxymethyl)-3-hydroxy-cyclopentyl]-propyl}-thiophene-2-carboxylic acid was tested at multiple concentrations in normotensive dogs, dosing once daily for 5 days. At 0.1%, the maximum intraocular pressure (IOP) decrease from baseline was 7.5 mmHg (48%) at 30 h; the maximum ocular surface hyperemia (OSH) score was 2.75 at 26 h. At 0.01%, the maximum IOP decrease from baseline was 7.5 mmHg (43%) at 76 h; the maximum OSH score was 2.0 at 26 h. At 0.005%, the maximum IOP decrease from baseline was 6.6 mmHg (35%) at 78 h; the maximum OSH score was 1.75 at 74 h. This compound was also tested in laser-induced hypertensive monkeys, using one single day dose. At 0.01%, the maximum IOP decrease from baseline was 20.2 mmHg (53%) at 24 h.

[7] = test system: normotensive dogs; experiment: Ocular surface hyperemia in normotensive dogs; format: in vivo; design: scale not given here; conditions: once daily for 5 days
Description: as §2

[8] = the 3rd table, read-out: EP2 data Ki
[9] = the 3rd table, read-out: EP2 data flipr EC50
[10] = the 3rd table, read-out: EP4 data KI
[11] = the 3rd table, read-out: EP4 data flipr EC50
[12] = the 3rd table, read-out: EP2 data cAMP EC50
[13] = the 2nd table, read-out: hEP2 Ki
[14] = the 2nd table, read-out: hEP2 flipr EC50
[15] = the 2nd table, read-out: hEP4 Ki
[16] = the 2nd table, read-out: hEP4 flipr EC50
[17] = the 2nd table, read-out: hEP2 cAMP EC50

T1 sequence (P43116 whole entry): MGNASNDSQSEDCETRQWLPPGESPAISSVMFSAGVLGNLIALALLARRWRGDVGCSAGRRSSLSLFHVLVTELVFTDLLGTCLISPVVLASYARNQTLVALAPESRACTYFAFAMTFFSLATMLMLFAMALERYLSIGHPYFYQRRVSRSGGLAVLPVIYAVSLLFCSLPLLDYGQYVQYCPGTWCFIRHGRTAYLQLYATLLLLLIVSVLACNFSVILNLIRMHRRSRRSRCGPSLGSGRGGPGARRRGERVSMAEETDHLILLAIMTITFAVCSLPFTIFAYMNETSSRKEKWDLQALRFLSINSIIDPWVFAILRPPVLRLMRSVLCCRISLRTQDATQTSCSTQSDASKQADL

| Ki [1, 13] [nM] | EC50 [2, 14] [nM] | Ki [3, 15] [nM] | EC50 [4, 16] [nM] | EC50 [5, 17] [nM] | Compound | further results |
| --- | --- | --- | --- | --- | --- | --- |
| 2 | 31 | 158 | 2940 | 0.2 | Cc1cc(C)cc(OC[C@@H]2[C@@H](CCCc3ccc(C(=O)O)s3)[C@H](Cl)C[C@H]2O)c1 [drawing 37, 5-{3-[(1R,2S,3R,5R)-5-Chloro-2-(3,5-dimethyl-phenoxymethyl)-3-hydroxy-cyclopentyl]-propyl}-thiophene-2-carboxylic acid] | – |
| 3 | 3280 | – | > 10000 | 0.26 | O=C(O)c1ccc(CCC[C@@H]2[C@@H](COc3cc(Cl)cc(CO)c3)[C@H](O)C[C@H]2Cl)s1 [drawing 36, 5-{3-[(1R,2S,3R,5R)-5-Chloro-2-(3-chloro-5-hydroxymethyl-phenoxymethyl)-3-hydroxy-cyclopentyl]-propyl}-thiophene-2-carboxylic acid] | – |
| 2 | 7010 | 366 | > 10000 | 0.12 | O=C(O)c1ccc(CCC[C@@H]2[C@@H](COc3cc(Cl)cc(Cl)c3)[C@H](O)C[C@H]2Cl)s1 [drawing 35, 5-{3-[(1R,2S,3R,5R)-5-Chloro-2-(3,5-dichloro-phenoxymethyl)-3-hydroxy-cyclopentyl]-propyl}-thiophene-2-carboxylic acid] | – |
| 3 | 15 | 149 | > 10000 | 0.2 | N#C[C@@H]1C[C@@H](O)[C@H](COc2cc(Cl)cc(Cl)c2)[C@H]1CCCc1ccc(C(=O)O)s1 [drawing 40, 5-{3-[(1S,2S,3R,5R)-5-Cyano-2-(3,5-dichloro-phenoxymethyl)-3-hydroxy-cyclopentyl]-propyl}-thiophene-2-carboxylic acid] | – |

Continued, compound first:

| Compound | Ki [1, 13] [nM] | EC50 [2, 14] [nM] | Ki [3, 15] [nM] | EC50 [4, 16] [nM] | EC50 [5, 17] [nM] | further results |
| --- | --- | --- | --- | --- | --- | --- |
| CCCCCCCc1ccc(OC[C@@H]2[C@@H](CCCc3ccc(C(=O)O)s3)[C@H](Cl)C[C@H]2O)cc1 [5-(3-((1R,2S,3R,5R)-5-chloro-2-((4-heptylphenoxy)methyl)-3-hydroxycyclopentyl)propyl)thiophene-2-carboxylic acid] | – | – | – | – | – | Ki [1, 8]: 378 nM; EC50 [2, 9]: 6820 nM; Ki [3, 10]: 4520 nM; EC50 [4, 11]: > 10000 nM; EC50 [5, 12]: 46 nM |
| CC(C)OC(=O)c1ccc(CCC[C@@H]2[C@@H](COc3cc(Cl)cc(CO)c3)[C@H](O)C[C@H]2Cl)s1 [Example 14, Isopropyl 5-{3-[(1R,2S,3R,5R)-5-Chloro-2-(3-chloro-5-hydroxymethyl-phenoxymethyl)-3-hydroxy-cyclopentyl]-propyl}-thiophene-2-carboxylate] | – | – | – | – | – | inhibition in vivo at 0.1 % [6]: 36%; maximum ocular surface hyperemia (OSH) score ([7]; 0.1%): 1.9 |
| O=C(O)c1ccc(CCC[C@H]2C(=O)CC[C@@H]2COc2cc(Cl)cc(CO)c2)s1 [5-{3-[(1R,2S)-2-(3-Chloro-5-hydroxymethyl-phenoxymethyl)-5-oxo-cyclopentyl]-propyl}-thiophene-2-carboxylic acid] | 39 | 297 | 179 | > 10000 | 2 | – |
| O=C(O)c1ccc(CCC[C@@H]2[C@@H](COc3cc(Cl)cc(CO)c3)CC[C@H]2Cl)s1 [5-{3-[(1R,2R,5S)-2-Chloro-5-(3-chloro-5-hydroxymethyl-phenoxymethyl)-cyclopentyl]-propyl}-thiophene-2-carboxylic acid] | 12 | 6750 | 197 | > 10000 | 5.2 | – |
| CCc1cc(OC[C@@H]2[C@@H](CCCc3ccc(C(=O)O)s3)[C@H](Cl)C[C@H]2O)ccc1Cl [5-(3-((1R,2S,3R,5R)-5-chloro-2-((4-chloro-3-ethylphenoxy)methyl)-3-hydroxycyclopentyl)propyl)thiophene-2-carboxylic acid] | – | – | – | – | – | Ki [1, 8]: 2 nM; EC50 [2, 9]: 31400 nM; Ki [3, 10]: 177 nM; EC50 [4, 11]: 26500 nM; EC50 [5, 12]: 0.4 nM |
| N#C[C@@H]1C[C@@H](O)[C@H](COc2cc(Cl)cc(Cl)c2)[C@H]1CCCc1ccc(C(=O)O)s1 [Example 9, 5-{3-[(1S,2S,3R,5R)-5-Cyano-2-(3,5-dichloro-phenoxymethyl)-3-hydroxy-cyclopentyl]-propyl}-thiophene-2-carboxylic acid] | – | – | – | – | – | inhibition in vivo at 0.01 % [6]: 17%; maximum ocular surface hyperemia (OSH) score ([7]; 0.01%): 1.2 |
| O=C(O)c1ccc(CCC[C@@H]2[C@@H](COc3ccc4c(c3)CCCC4)[C@H](O)C[C@H]2Cl)s1 [5-(3-((1R,2S,3R,5R)-5-chloro-3-hydroxy-2-((5,6,7,8-tetrahydronaphthalen-2-yloxy)methyl)cyclopentyl)propyl)thiophene-2-carboxylic acid] | – | – | – | – | – | Ki [1, 8]: 38 nM; EC50 [2, 9]: 2490 nM; Ki [3, 10]: 800 nM; EC50 [4, 11]: > 10000 nM; EC50 [5, 12]: 12 nM |
| Cc1cc(C)cc(OC[C@@H]2[C@@H](CCCc3ccc(C(=O)O)s3)[C@H](Cl)C[C@H]2O)c1 [Example 6, 5-{3-[(1R,2S,3R,5R)-5-Chloro-2-(3,5-dimethyl-phenoxymethyl)-3-hydroxy-cyclopentyl]-propyl}-thiophene-2-carboxylic acid] | – | – | – | – | – | inhibition in vivo at 0.01 % [6]: 33%; maximum ocular surface hyperemia (OSH) score ([7]; 0.01%): 1.9 |
| O=C(O)c1ccc(CCC[C@@H]2[C@@H](COc3cc(Cl)cc(Cl)c3)[C@H](O)C[C@H]2F)s1 [5-{3-[(1R,2S,3R,5R)-2-(3,5-Dichloro-phenoxymethyl)-5-fluoro-3-hydroxy-cyclopentyl]-propyl}-thiophene-2-carboxylic acid] | 8 | 83 | 310 | > 10000 | 0.7 | – |
| O=C(O)CCC/C=C\C[C@@H]1[C@@H](COc2cc(Cl)cc(Cl)c2)[C@H](O)C[C@H]1Cl [(Z)-7-[(1R,2S,3R,5R)-5-Chloro-2-(3,5-dichloro-phenoxymethyl)-3-hydroxy-cyclopentyl]-hept-5-enoic acid] | – | – | – | – | – | maximum ocular surface hyperemia (OSH) score ([7]; 0.05%): 0.6; maximum ocular surface hyperemia (OSH) score ([7]; 0.1%): 1.3 |
| O=C(O)c1ccc(CCC[C@@H]2[C@@H](COc3cc(Cl)cc(CO)c3)[C@H](O)C[C@H]2Cl)s1 [Example 5, 5-{3-[(1R,2S,3R,5R)-5-Chloro-2-(3-chloro-5-hydroxymethyl-phenoxymethyl)-3-hydroxy-cyclopentyl]-propyl}-thiophene-2-carboxylic acid] | – | – | – | – | – | inhibition in vivo at 0.1 % [6]: 34%; maximum ocular surface hyperemia (OSH) score ([7]; 0.1%): 1.9 |
| CC(=O)OCCc1cc(Cl)cc(OC[C@@H]2[C@@H](C/C=C\CCCC(=O)O)[C@H](Cl)C[C@H]2O)c1 [(Z)-7-{(1R,2S,3R,5R)-2-[3-(2-Acetoxy-ethyl)-5-chloro-phenoxymethyl]-5-chloro-3-hydroxy-cyclopentyl}-hept-5-enoic acid] | 82 | 4990 | – | – | 18 | – |
| O=C(O)c1ccc(CCC[C@@H]2[C@@H](COc3ccc4ccccc4c3)[C@H](O)C[C@H]2Cl)s1 [5-(3-((1R,2S,3R,5R)-5-chloro-3-hydroxy-2-((naphthalen-2-yloxy)methyl)cyclopentyl)propyl)thiophene-2-carboxylic acid] | – | – | – | – | – | Ki [1, 8]: 3 nM; EC50 [2, 9]: > 10000 nM; Ki [3, 10]: 227 nM; EC50 [4, 11]: > 10000 nM; EC50 [5, 12]: 3 nM |
